Measurements: JP2009132645A, “アシル化ハイドロキノン配糖体及びそれを含有する皮膚外用剤” (Pola Chemical Industries Inc, priority 2007, dated 2009)

Assay: Cytotoxicity in normal human epidermal melanocytes (trypan blue)
Assay type: cell-based
Conditions: 2 days culture, 0.5% trypan blue, concentration not given, read-out: cytotoxicity (judgement by cell death rate)

In the case of `CCCCCCCCCCC(=O)OC[C@H]1O[C@@H](Oc2ccc(O)cc2)[C@H](O)[C@@H](O)[C@@H]1O` [比較化合物1, 6−O−ウンデカノイルアルブチン], the cytotoxicity at 48 h is reported as over 50%.
